Assay results published in patent publication US20110136801A1, “Novel Compounds” (Dainippon Sumitomo Pharma Co. Ltd., priority 2009, published 2011).

Assays:
human TLR7 = molecular target: T1, human TLR7 (Homo sapiens, UniProt Q9NYK1); test: Human TLR7 Assay (SEAP reporter in HEK293 cells); format: cell-based; details: HEK293 cell line expressing human TLR7 and pNiFty2-SEAP reporter, overnight incubation at 37° C., 0.1% DMSO; read-out: hTLR7 EC50;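 also: Read-out is secreted alkaline phosphatase made under an NFkB/ELAM-1 composite promoter, reporting TLR7-triggered NFkB activation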
T1 construct: expressed in transfected cells; host or cells: HEK293 cell line stably expressing the pNiFty2-SEAP reporter plasmid; TLR7 in pUNO vector, blasticidin selection
T1 sequence (Q9NYK1 27-1049): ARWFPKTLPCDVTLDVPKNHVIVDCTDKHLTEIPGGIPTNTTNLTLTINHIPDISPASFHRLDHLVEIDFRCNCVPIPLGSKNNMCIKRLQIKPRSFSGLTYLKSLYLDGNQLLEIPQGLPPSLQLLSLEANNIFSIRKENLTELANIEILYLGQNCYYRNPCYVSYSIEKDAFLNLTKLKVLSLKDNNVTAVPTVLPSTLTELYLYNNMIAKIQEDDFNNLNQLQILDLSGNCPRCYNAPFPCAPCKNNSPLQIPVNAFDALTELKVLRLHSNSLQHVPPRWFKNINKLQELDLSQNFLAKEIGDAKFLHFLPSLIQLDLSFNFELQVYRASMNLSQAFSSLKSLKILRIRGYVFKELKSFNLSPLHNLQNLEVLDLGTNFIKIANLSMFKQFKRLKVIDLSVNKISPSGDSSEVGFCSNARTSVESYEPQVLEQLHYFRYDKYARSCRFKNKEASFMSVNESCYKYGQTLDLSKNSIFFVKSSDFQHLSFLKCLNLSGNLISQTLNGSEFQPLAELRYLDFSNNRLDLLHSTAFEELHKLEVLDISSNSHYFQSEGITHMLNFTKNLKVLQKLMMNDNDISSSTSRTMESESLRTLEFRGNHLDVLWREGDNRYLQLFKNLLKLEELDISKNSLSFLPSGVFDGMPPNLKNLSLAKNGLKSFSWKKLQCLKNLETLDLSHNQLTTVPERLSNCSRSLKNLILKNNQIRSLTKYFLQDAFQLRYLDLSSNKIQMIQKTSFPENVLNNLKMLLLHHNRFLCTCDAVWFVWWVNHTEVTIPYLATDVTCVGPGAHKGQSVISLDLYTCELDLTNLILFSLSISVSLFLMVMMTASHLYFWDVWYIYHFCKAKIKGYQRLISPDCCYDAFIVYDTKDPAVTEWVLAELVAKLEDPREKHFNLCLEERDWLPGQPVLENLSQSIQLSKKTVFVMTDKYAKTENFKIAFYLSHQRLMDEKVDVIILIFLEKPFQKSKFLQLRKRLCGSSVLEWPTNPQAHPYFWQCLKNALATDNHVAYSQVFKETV

Male Brown Norway rats = test: Antigen-induced pulmonary inflammation in a rat asthma model (eosinophils and Th2 cytokines in BALF); format: in vivo; details: BALF 48 hours after challenge
Procedure: Rats were sensitized and challenged to produce allergic airway inflammation in a similar manner to that described by Underwood et al (British Journal of Pharmacology 2002; 137: 263-275, 2002). Male Brown Norway rats were sensitized subcutaneously with ovalbumin (OVA) and aluminum hydroxide on day 0, and challenged with aerosolized OVA solution on day 14. The test compound was administered twice intratracheally 24 hours before and 24 hours after the OVA-challenge and bronchoalveolar lavage fluid (BALF) was collected 48 hours after the OVA-challenge. Then eosinophils and Th2 cytokines (IL-5 and IL-13) in the BALF were measured to evaluate efficacy of the test compounds of this invention.

[1] = 0.1 mg/kg intratracheally 24 hours before and 24 hours after OVA-challenge
[2] = 1.0 mg/kg intratracheally 24 hours before and 24 hours after OVA-challenge
[3] = 0.03 mg/kg intratracheally 24 hours before and 24 hours after OVA-challenge
[4] = 0.3 mg/kg intratracheally 24 hours before and 24 hours after OVA-challenge
[5] = 0.01 mg/kg intratracheally 24 hours before and 24 hours after OVA-challenge

| Compound | EC50 (human TLR7) | Eosinophiles in BALF, inhibition (%) to OVA-Challenge control (Male Brown Norway rats; [1]) | IL-5 in BALF, inhibition (%) to OVA-Challenge control (Male Brown Norway rats; [1]) | IL-13 in BALF, inhibition (%) to OVA-Challenge control (Male Brown Norway rats; [1]) | Eosinophiles in BALF, inhibition (%) to OVA-Challenge control (Male Brown Norway rats; [2]) | IL-5 in BALF, inhibition (%) to OVA-Challenge control (Male Brown Norway rats; [2]) | IL-13 in BALF, inhibition (%) to OVA-Challenge control (Male Brown Norway rats; [2]) | Eosinophiles in BALF, inhibition (%) to OVA-Challenge control (Male Brown Norway rats; [3]) | IL-13 in BALF, inhibition (%) to OVA-Challenge control (Male Brown Norway rats; [3]) | Eosinophiles in BALF, inhibition (%) to OVA-Challenge control (Male Brown Norway rats; [4]) | IL-13 in BALF, inhibition (%) to OVA-Challenge control (Male Brown Norway rats; [4]) | Eosinophiles in BALF, inhibition (%) to OVA-Challenge control (Male Brown Norway rats; [5]) | IL-5 in BALF, inhibition (%) to OVA-Challenge control (Male Brown Norway rats; [5]) | IL-13 in BALF, inhibition (%) to OVA-Challenge control (Male Brown Norway rats; [5]) |
| --- | --- | --- | --- | --- | --- | --- | --- | --- | --- | --- | --- | --- | --- | --- |
| CCOCc1nc2c(N)nc3ccccc3c2n1CCCN(Cc1cccc(OC(C)(C)C(=O)OC)c1)C(=O)CN(CC)CC [Example 163, Methyl 2-{3-[(N-{3-[4-amino-2-(ethoxymethyl)-1H-imidazo[4,5-c]quinolin-1-yl]propyl}-2-{diethylamino}acetamido)methyl]phenoxy}-2-methylpropanoate] | 174 nM |  |  |  |  |  |  | 45% | 50% | 65% | 80% |  |  |  |
| CCOCc1nc2c(N)nc3ccccc3c2n1CCCN(Cc1cccc(OCC(=O)OC(C)C)c1)C(=O)CN(CC)CC [Example 161, Isopropyl 2-{3-[(N-{3-[4-amino-2-(ethoxymethyl)-1H-imidazo[4,5-c]quinolin-1-yl]propyl}-2-{diethylamino}acetamido)methyl]phenoxy}acetate] | 262 nM |  |  |  |  |  |  | 54% | No effect | 66% | 64% |  |  |  |

Stronger by EC50 (human TLR7), values ahead:

| EC50 (human TLR7) | Compound | Eosinophiles in BALF, inhibition (%) to OVA-Challenge control (Male Brown Norway rats; [1]) | IL-5 in BALF, inhibition (%) to OVA-Challenge control (Male Brown Norway rats; [1]) | IL-13 in BALF, inhibition (%) to OVA-Challenge control (Male Brown Norway rats; [1]) | Eosinophiles in BALF, inhibition (%) to OVA-Challenge control (Male Brown Norway rats; [2]) | IL-5 in BALF, inhibition (%) to OVA-Challenge control (Male Brown Norway rats; [2]) | IL-13 in BALF, inhibition (%) to OVA-Challenge control (Male Brown Norway rats; [2]) | Eosinophiles in BALF, inhibition (%) to OVA-Challenge control (Male Brown Norway rats; [3]) | IL-13 in BALF, inhibition (%) to OVA-Challenge control (Male Brown Norway rats; [3]) | Eosinophiles in BALF, inhibition (%) to OVA-Challenge control (Male Brown Norway rats; [4]) | IL-13 in BALF, inhibition (%) to OVA-Challenge control (Male Brown Norway rats; [4]) | Eosinophiles in BALF, inhibition (%) to OVA-Challenge control (Male Brown Norway rats; [5]) | IL-5 in BALF, inhibition (%) to OVA-Challenge control (Male Brown Norway rats; [5]) | IL-13 in BALF, inhibition (%) to OVA-Challenge control (Male Brown Norway rats; [5]) |
| --- | --- | --- | --- | --- | --- | --- | --- | --- | --- | --- | --- | --- | --- | --- |
| 56.6 nM | CCN(CC)CC(=O)N(CCCn1c(CCOC)nc2c(N)nc3ccccc3c21)Cc1cccc(OCC(=O)OC2CCCC2)c1 [Example 80, Cyclopentyl 2-{3-[(N-{3-[4-amino-2-(2-methoxyethyl)-1H-imidazo[4,5-c]quinolin-1-yl]propyl}-2-{diethylamino}acetamido)methyl]phenoxy}acetate] | 15% | No effect | No effect | 89% | 91% | 83% |  |  |  |  |  |  |  |
| 33.1 nM | CCN(CC)CC(=O)N(CCCn1c(CCOC)nc2c(N)nc3ccccc3c21)Cc1cccc(OC(C)(C)C(=O)OC)c1 [Example 56, Methyl 2-{3-[(N-{3-[4-amino-2-(2-methoxyethyl)-1H-imidazo[4,5-c]quinolin-1-yl]propyl}-2-{diethylamino}acetamido)methyl]phenoxy}-2-methylpropanoate] | 78% | 86% | 89% | 94% | 99% | 98% |  |  |  |  |  |  |  |
| 31.7 nM | CCN(CC)CC(=O)N(CCCn1c(CCOC)nc2c(N)nc3ccccc3c21)Cc1cccc(OCC(=O)OC)c1 [Example 20, Methyl (3-{[[3-(4-amino-2-(2-methoxyethyl)-1H-imidazo[4,5-c]quinolin-1-yl)propyl](N,N-diethylglycyl)amino]methyl}phenoxy)acetate] | 56% | No effect | 22% |  |  |  |  |  |  |  | 14% | No effect | No effect |
